Measured values reported in PubChem BioAssay (NCI).
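48-hour exposure; five concentrations; linearly interpolated endpoints. GI50 is the concentration that inhibits growth by half. The concentration for full growth arrest is given as TGI.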

Tests used:
Assay in all cases: inhibition of tumour cell growth, NCI panel, 48 h
NCI-H23 lung = test system: NCI-H23 lung
NCI-H460 lung = test system: NCI-H460 lung
NCI-H522 lung = test system: NCI-H522 lung
NCI/ADR-RES ovarian = test system: NCI/ADR-RES ovarian
OVCAR-3 ovarian = test system: OVCAR-3 ovarian
OVCAR-4 ovarian = test system: OVCAR-4 ovarian
OVCAR-5 ovarian = test system: OVCAR-5 ovarian
OVCAR-8 ovarian = test system: OVCAR-8 ovarian
PC-3 prostate = test system: PC-3 prostate
RPMI-8226 leukemia = test system: RPMI-8226 leukemia
RXF 393 renal = test system: RXF 393 renal
SF-268 CNS = test system: SF-268 CNS
SF-295 CNS = test system: SF-295 CNS
SF-539 CNS = test system: SF-539 CNS
SK-MEL-2 melanoma = test system: SK-MEL-2 melanoma
SK-MEL-28 melanoma = test system: SK-MEL-28 melanoma
SK-MEL-5 melanoma = test system: SK-MEL-5 melanoma
SK-OV-3 ovarian = test system: SK-OV-3 ovarian
SN12C renal = test system: SN12C renal
SNB-19 CNS = test system: SNB-19 CNS
SNB-75 CNS = test system: SNB-75 CNS
SR leukemia = test system: SR leukemia
SW-620 colon = test system: SW-620 colon
T-47D breast = test system: T-47D breast
TK-10 renal = test system: TK-10 renal
U251 CNS = test system: U251 CNS
UACC-257 melanoma = test system: UACC-257 melanoma
UACC-62 melanoma = test system: UACC-62 melanoma
UO-31 renal = test system: UO-31 renal

SMILES: CCOC(=O)c1cc(-c2ccc([N+](=O)[O-])cc2)n(-c2ccc(C(=O)O)c(O)c2)c1C
- TGI (NCI-H23 lung): 13.7 µM
- GI50 (NCI-H460 lung): 4.16 µM
- TGI (NCI-H460 lung): 17 µM
- GI50 (NCI-H522 lung): 6.48 µM
- TGI (NCI-H522 lung): 23.9 µM
- GI50 (NCI/ADR-RES ovarian): 3.8 µM
- TGI (NCI/ADR-RES ovarian): 38.6 µM
- GI50 (OVCAR-3 ovarian): 2.86 µM
- TGI (OVCAR-3 ovarian): 9.53 µM
- GI50 (OVCAR-4 ovarian): 4.11 µM
- TGI (OVCAR-4 ovarian): 19.7 µM
- GI50 (OVCAR-5 ovarian): 17.3 µM
- TGI (OVCAR-5 ovarian): 35.3 µM
- GI50 (OVCAR-8 ovarian): 5.29 µM
- TGI (OVCAR-8 ovarian): 43.7 µM
- GI50 (PC-3 prostate): 2.96 µM
- TGI (PC-3 prostate): 18.8 µM
- GI50 (RPMI-8226 leukemia): 0.148 µM
- TGI (RPMI-8226 leukemia): > 100 µM
- GI50 (RXF 393 renal): 5.95 µM
- TGI (RXF 393 renal): 20.3 µM
- GI50 (SF-268 CNS): 4.69 µM
- TGI (SF-268 CNS): 19.6 µM
- GI50 (SF-295 CNS): 3.72 µM
- TGI (SF-295 CNS): 19.6 µM
- GI50 (SF-539 CNS): 10.6 µM
- TGI (SF-539 CNS): 22.5 µM
- GI50 (SK-MEL-2 melanoma): 11.5 µM
- TGI (SK-MEL-2 melanoma): 24.7 µM
- GI50 (SK-MEL-28 melanoma): 3.81 µM
- TGI (SK-MEL-28 melanoma): 14.4 µM
- GI50 (SK-MEL-5 melanoma): 1.64 µM
- TGI (SK-MEL-5 melanoma): 3.43 µM
- GI50 (SK-OV-3 ovarian): 10.8 µM
- TGI (SK-OV-3 ovarian): 23 µM
- GI50 (SN12C renal): 6.73 µM
- TGI (SN12C renal): 22.6 µM
- GI50 (SNB-19 CNS): 5.66 µM
- TGI (SNB-19 CNS): 19.1 µM
- GI50 (SNB-75 CNS): 7.65 µM
- TGI (SNB-75 CNS): 22.1 µM
- GI50 (SR leukemia): 9.3 µM
- TGI (SR leukemia): > 100 µM
- GI50 (SW-620 colon): 4.76 µM
- TGI (SW-620 colon): 16.8 µM
- GI50 (T-47D breast): 2.81 µM
- TGI (T-47D breast): 11.4 µM
- GI50 (TK-10 renal): 6.18 µM
- TGI (TK-10 renal): 20 µM
- GI50 (U251 CNS): 3.61 µM
- TGI (U251 CNS): 14.1 µM
- GI50 (UACC-257 melanoma): 9.2 µM
- TGI (UACC-257 melanoma): 22 µM
- GI50 (UACC-62 melanoma): 3.95 µM
- TGI (UACC-62 melanoma): 15.4 µM
- GI50 (UO-31 renal): 3.74 µM
- TGI (UO-31 renal): 18.3 µM
